According to patent US10159265B2, “Feed composition for reducing ruminant methanogenesis” (priority 2012, dated 2018):
“Also recorded” adds a separate entry of the source. Marks after values point to notes of the source that are not given here.

Experiments:
[1] = system: "in vitro" rumen fluid culture; experiment: Biogas production in "in vitro" rumen fluid culture (pressure meter); type: cell-based, calves; parameters: Average biogas production / Cumulative biogas production / Biogas production: unit not given here; conditions: Exp 1; for Average biogas production: average over doses and incubation times
Protocol: (§1) Two trials following an identical experimental protocol were designed to study the effect of different pure flavonoids on rumen fermentation using a simulatory “in vitro” system based on the experimental protocol described by Theodorou M K et al. (1994) Animal Feed Science and Technology, 48 (3), p. 185-197; Mauricio, R. M., et al. (1999) Animal Feed Science and Technology 79, 321-330.
Gas production was determined from a semi-automatic pressure meter, the relationship between pressure levels and the produced gas volume was previously calculated.
(§2) Rumen cannulated calves which received a mixed ration mainly composed of concentrate (90:10) were used as rumen fluid donor; feed composition is presented in Table 1. The inoculum was collected and filtered through two-layer surgical gauze and kept in thermo pots. Flavonoids (Table 2) plus 600 mg of concentrate (Table 1) and 60 mg of barley straw as the substrate were dosed by triplicate in preheated bottles (39° C.) and maintained under anaerobic conditions. Flavonoids isonaringin, neoeritrocin, poncirin were purchased from INDOFINE Chemical Company, Inc (USA). 10 ml of rumen fluid and 40 ml of incubation medium were added to the bottles (McDougall, El (1948) Studies on ruminant saliva. 1. The composition and output of sheep's saliva. Biochem J. 43(1) 99-109). Once the bottles were filled and the anaerobic condition was applied, the bottles were sealed and the incubation process was started in a hot water bath. […] Each sample was incubated in triplicate in two sets or batches.

[2] = system: methanogenic (archea) populations; experiment: Methane production in "in vitro" rumen fluid culture; type: cell-based, calves; parameters: Average methane production / Accumulated methane production / Methane production / Cumulative methane production: unit not given here; conditions: Exp 1
Text: as §1, §2
The effects of flavonoids substances on fermentation activity of certain archea populations which are theoretically responsible for the methane production were analyzed.
The experimental design allows determining whether the effect of flavonoids on methane reduction was derived from a general reduction in microbial activity and biogas production or contrarily flavonoid affects specifically on methanogenic (archea) populations. The presence of flavonoids in the culture medium reduced methane contribution in the total biogas production (P<0.05) although, again, the aforementioned impact was heterogeneous.

[3] = system: "in vitro" ruminal fluid cultures; experiment: Volatile fatty acid concentration and molar proportions in "in vitro" ruminal fluid cultures; type: cell-based, calves; conditions: for % Acetate, molar ratio, average (μ) / % Butyrate, molar ratio, average (μ) / % Propionate, molar ratio, average (M) / VFA concentration, average (μ): average over incubation times
Text: as §1
(§3) Rumen cannulated calves which received a mixed ration mainly composed of concentrate (90:10) were used as rumen fluid donor; feed composition is presented in Table 1. The inoculum was collected and filtered through two-layer surgical gauze and kept in thermo pots. Flavonoids (Table 2) plus 600 mg of concentrate (Table 1) and 60 mg of barley straw as the substrate were dosed by triplicate in preheated bottles (39° C.) and maintained under anaerobic conditions. Flavonoids isonaringin, neoeritrocin, poncirin were purchased from INDOFINE Chemical Company, Inc (USA). 10 ml of rumen fluid and 40 ml of incubation medium were added to the bottles (McDougall, El (1948) Studies on ruminant saliva. 1. The composition and output of sheep's saliva. Biochem J. 43(1) 99-109). Once the bottles were filled and the anaerobic condition was applied, the bottles were sealed and the incubation process was started in a hot water bath. Pressure readings were made at 2, 4, 6, 8, 12, 24, 36 and 48 hours. Each sample was incubated in triplicate in two sets or batches.
[…] P., 1982 Science des Aliments 2, 131-144), lactate (Taylor, K. A. C. C., 1996. Appl. Biochem. Biotechnol. Enzym. Eng. Biotechnol. 56, 49-58) and ammonia (Chaney, A. L., Marbach, E. P., 1962. Clin. Chem. 8, 130-132) analyses.

[4] = system: "in vitro" ruminal fluid cultures; experiment: Ammonia (N-NH3) concentration in "in vitro" ruminal fluid cultures; type: cell-based, calves; conditions: for N-NH3 concentration, average (M): average over incubation times
Text: as §1, §3
(§4) After 12 hours of incubation, one bottle (replicate) from each treatment was opened, pH was recorded and the bottle was sampled for volatile fatty acids (Jouany, J. P., 1982 Science des Aliments 2, 131-144), lactate (Taylor, K. A. C. C., 1996. Appl. Biochem. Biotechnol. Enzym. Eng. Biotechnol. 56, 49-58) and ammonia (Chaney, A. L., Marbach, E. P., 1962. Clin. Chem. 8, 130-132) analyses.

[5] = system: "in vitro" ruminal fluid culture; experiment: Lactate concentration in "in vitro" ruminal fluid culture; type: cell-based, calves; conditions: 12 hours of incubation
Text: as §1, §3, §4

ruminal bacteria = experiment: Bacterial DNA concentration by qPCR; type: cell-based, calves; conditions: 12 hours of incubation
Protocol: as §3, §4
(§5) The environmental DNA was extracted using the technique proposed by Yu and Morrison (2004). Quantification of Streptococcus bovis, Megasphaera elsdenii and Selenomonas ruminantium DNA was done by qPCR using specific primers (Tajima, K. et al. 2001. Appl. Environ. Microb. 67, 2766-2774; Ouwerkerk, D., et al. 2002. J. Appl. Microbiol. 92, 753-758). Results were statistically analyzed using the PROC MIXED procedure of SAS statistical package (SAS, 2000, User's guide: Statistics, version 8 editions inst., Inc., Cary, N.C.). The least significant difference was used to compare the means. Differences between means in which P<0.05 were accepted as significant.

Streptococcus bovis = experiment: qPCR relative quantification of Streptococcus bovis; type: cell-based; conditions: 12 hours of incubation
Protocol: as §3, §4, §5

Selenomonas ruminantium = experiment: qPCR relative quantification of Selenomonas ruminantium; type: cell-based; conditions: 12 hours of incubation
Protocol: as §3, §4, §5

Megasphaera elsdenii = experiment: qPCR relative quantification of Megasphaera elsdenii; type: cell-based; conditions: 12 hours of incubation
Protocol: as §3, §4, §5

[6] = system: "in vitro" ruminal fluid cultures; experiment: Ammonia (N-NH3) concentration in "in vitro" ruminal fluid cultures; type: cell-based, calves; conditions: 72 h
[7] = average over doses and incubation times
[8] = average over doses and incubation times, listed as neoeriocitrin

C[C@@H]1O[C@@H](O[C@H]2[C@H](Oc3cc(O)c4c(c3)O[C@H](c3ccc(O)c(O)c3)CC4=O)O[C@H](CO)[C@@H](O)[C@@H]2O)[C@H](O)[C@H](O)[C@H]1O [Neoeriocitrin]
Cumulative biogas production ([1]; 12 h incubation): 211.78
Cumulative biogas production ([1]; 24 h incubation): 259.11
Cumulative biogas production ([1]; 48 h incubation): 288.43
Cumulative biogas production ([1]; 72 h incubation): 307.80
Biogas production ([1]; dose 1, 0.2 g/kg DM): 277.08
Biogas production ([1]; dose 2, 0.5 g/kg DM): 256.47
Dosage effect on methane proportion of biogas ([2]; 500 vs. 200 mg/kg DM): tended to depress methane production
Accumulated methane production ([2]; 12 h): 29.65
Proportion of methane in the produced biogas ([2]; 12 h): 14.00
Accumulated methane production ([2]; 24 h): 37.03
Proportion of methane in the produced biogas ([2]; 24 h): 15.75
Accumulated methane production ([2]; 48 h): 41.74
Proportion of methane in the produced biogas ([2]; 48 h): 16.33
Accumulated methane production ([2]; 72 h): 45.18
Proportion of methane in the produced biogas ([2]; 72 h): 18.19
Average methane production [2, 7]: 38.40^a
Proportion of methane in the produced biogas [2, 7]: 16.07^a
Average methane production [2, 8]: increased
Proportion of methane in the produced biogas [2, 8]: significantly increased; also recorded: increased the methane proportion
Methane production ([2]; dose 1, 0.2 g/kg DM): 39.51
Proportion of methane in the produced biogas ([2]; dose 1, 0.2 g/kg DM): 15.96
Methane production ([2]; dose 2, 0.5 g/kg DM): 37.28
Proportion of methane in the produced biogas ([2]; dose 2, 0.5 g/kg DM): 16.17
% Acetate, molar ratio ([3]; 0 h): 62.51 mol/100 mol
% Butyrate, molar ratio ([3]; 0 h): 9.07 mol/100 mol
% Propionate, molar ratio ([3]; 0 h): 20.03 mol/100 mol
A/P rate (acetate/propionate) ([3]; 0 h): 3.12
VFA concentration ([3]; 0 h (initial constant value)): 13.78 mmol/L
% Acetate, molar ratio ([3]; 12 h): 55.73 mol/100 mol
% Butyrate, molar ratio ([3]; 12 h): 11.84 mol/100 mol
% Propionate, molar ratio ([3]; 12 h): 26.77 mol/100 mol
A/P rate (acetate/propionate) ([3]; 12 h): 2.09
VFA concentration ([3]; 12 h): 39.75 mmol/L
% Acetate, molar ratio ([3]; 72 h): 56.21 mol/100 mol
% Butyrate, molar ratio ([3]; 72 h): 11.79 mol/100 mol
% Propionate, molar ratio ([3]; 72 h): 24.39 mol/100 mol
A/P rate (acetate/propionate) ([3]; 72 h): 2.31
VFA concentration ([3]; 72 h): 53.75 mmol/L
% Acetate, molar ratio, average (μ) [3]: 58.15 mol/100 mol
% Butyrate, molar ratio, average (μ) [3]: 10.90 ^b mol/100 mol
% Propionate, molar ratio, average (M) [3]: 23.73 ^a mol/100 mol
VFA concentration, average (μ) [3]: 35.76 mmol/L
% Propionate, molar ratio, average (M) ([3]; listed as neoeritrocin): 23.7 mol/100 mol
N-NH3 concentration ([4]; 0 h (initial constant value)): 149.99 mg/L
N-NH3 concentration ([4]; 12 h): 186.19 mg/L
N-NH3 concentration, average (M) [4]: 227.84 mg/L
Lactate [5]: 122.5 mg/L
Bacteria DNA (ruminal bacteria): 13.14 ^a μg/ml
Relative Quantification 2^(ΔΔCt) S. bovis (Streptococcus bovis): 0.62
Relative Quantification 2^(ΔΔCt) S. ruminantium (Selenomonas ruminantium): 0.79
Relative Quantification 2^(ΔΔCt) M. elsdenii (Megasphaera elsdenii): 0.76 ^a
N-NH3 concentration [6]: 347.34 mg/L

COc1ccc([C@@H]2CC(=O)c3c(O)cc(O[C@@H]4O[C@H](CO[C@@H]5O[C@@H](C)[C@H](O)[C@@H](O)[C@H]5O)[C@@H](O)[C@H](O)[C@H]4O)cc3O2)cc1O [Hesperidin, hesperidin]
Cumulative biogas production ([1]; 12 h incubation): 187.19
Cumulative biogas production ([1]; 24 h incubation): 227.31
Cumulative biogas production ([1]; 48 h incubation): 261.28
Cumulative biogas production ([1]; 72 h incubation): 282.84
Average biogas production [1]: 239.65^cd
Average biogas production ([1]; listed as hesperidin): 239.6
Biogas production ([1]; dose 1, 0.2 g/kg DM): 239.91
Biogas production ([1]; dose 2, 0.5 g/kg DM): 239.4
Accumulated methane production ([2]; 12 h): 21.08
Proportion of methane in the produced biogas ([2]; 12 h): 11.26
Accumulated methane production ([2]; 24 h): 26.03
Proportion of methane in the produced biogas ([2]; 24 h): 12.40
Accumulated methane production ([2]; 48 h): 31.54
Proportion of methane in the produced biogas ([2]; 48 h): 16.43
Accumulated methane production ([2]; 72 h): 35.04
Proportion of methane in the produced biogas ([2]; 72 h): 16.55
Average methane production [2, 7]: 28.42^cd
Proportion of methane in the produced biogas [2, 7]: 14.16^cd
Average methane production ([2]; average over doses and incubation times, listed as hesperidin): not modified
Methane production ([2]; dose 1, 0.2 g/kg DM): 28.11
Proportion of methane in the produced biogas ([2]; dose 1, 0.2 g/kg DM): 14.05
Methane production ([2]; dose 2, 0.5 g/kg DM): 28.74
Proportion of methane in the produced biogas ([2]; dose 2, 0.5 g/kg DM): 14.27
% Acetate, molar ratio ([3]; 0 h): 62.51 mol/100 mol
% Butyrate, molar ratio ([3]; 0 h): 9.07 mol/100 mol
% Propionate, molar ratio ([3]; 0 h): 20.03 mol/100 mol
A/P rate (acetate/propionate) ([3]; 0 h): 3.12
VFA concentration ([3]; 0 h (initial constant value)): 13.78 mmol/L
% Acetate, molar ratio ([3]; 12 h): 56.88 mol/100 mol
% Butyrate, molar ratio ([3]; 12 h): 10.41 mol/100 mol
% Propionate, molar ratio ([3]; 12 h): 27.22 mol/100 mol
A/P rate (acetate/propionate) ([3]; 12 h): 2.09
VFA concentration ([3]; 12 h): 38.25 mmol/L
% Acetate, molar ratio ([3]; 72 h): 56.04 mol/100 mol
% Butyrate, molar ratio ([3]; 72 h): 10.78 mol/100 mol
% Propionate, molar ratio ([3]; 72 h): 25.80 mol/100 mol
A/P rate (acetate/propionate) ([3]; 72 h): 2.17
VFA concentration ([3]; 72 h): 53.70 mmol/L
% Acetate, molar ratio, average (μ) [3]: 58.48 mol/100 mol
% Butyrate, molar ratio, average (μ) [3]: 10.08 ^ab mol/100 mol
% Propionate, molar ratio, average (M) [3]: 24.35 ^ab mol/100 mol
VFA concentration, average (μ) [3]: 35.25 mmol/L
N-NH3 concentration ([4]; 0 h (initial constant value)): 149.99 mg/L
N-NH3 concentration ([4]; 12 h): 187.36 mg/L
N-NH3 concentration, average (M) [4]: 220.15 mg/L
Lactate [5]: 44.3 mg/L
Lactate ([5]; listed as hesperidin): tended to moderate the recorded increase
Bacteria DNA (ruminal bacteria): 9.18 ^a μg/ml
Relative Quantification 2^(ΔΔCt) S. bovis (Streptococcus bovis): 0.58
Relative Quantification 2^(ΔΔCt) S. ruminantium (Selenomonas ruminantium): 0.74
Relative Quantification 2^(ΔΔCt) M. elsdenii (Megasphaera elsdenii): 1.18 ^b
N-NH3 concentration [6]: 323.11 mg/L
